In ChEMBL document CHEMBL3227934, “Cardioselectivity of beta-adrenoceptor blocking agents 1. 1-[(4-Hydroxyphenethyl)amino]-3-(aryloxy)propan-2-ols” (J Med Chem, 1979):

Key:
[1] = organism: Rattus norvegicus; test: Cardio selectivity ratio of Kapp for beta2 adrenergic receptor in rat lung muscle to Kapp for beta1 adrenergic receptor in rat ventricular muscle
[2] = biological target: Beta-1 adrenergic receptor (Rattus norvegicus) (UniProt P18090)
Description: Displacement of [3H]DHA from beta1 adrenergic receptor in rat ventricular muscle by competitive binding assay

[3] = biological target: Beta-2 adrenergic receptor (Rattus norvegicus) (UniProt P10608)
Beta-2 adrenergic receptor (Rattus norvegicus), sequence (P10608 whole entry, looked up): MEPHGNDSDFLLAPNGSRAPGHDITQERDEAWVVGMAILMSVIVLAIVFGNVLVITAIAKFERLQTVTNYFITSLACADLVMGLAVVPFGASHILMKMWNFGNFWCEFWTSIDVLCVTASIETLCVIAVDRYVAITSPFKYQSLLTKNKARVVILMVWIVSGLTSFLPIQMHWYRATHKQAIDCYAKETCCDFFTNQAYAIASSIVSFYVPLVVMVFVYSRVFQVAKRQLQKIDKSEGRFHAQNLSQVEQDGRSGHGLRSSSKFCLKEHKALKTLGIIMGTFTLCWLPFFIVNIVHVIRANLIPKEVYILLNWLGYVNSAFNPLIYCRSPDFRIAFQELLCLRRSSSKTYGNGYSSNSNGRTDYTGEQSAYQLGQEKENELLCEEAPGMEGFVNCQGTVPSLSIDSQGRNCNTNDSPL
Description: Displacement of [3H]DHA from beta2 adrenergic receptor in rat lung muscle by competitive binding assay

Beta-1 adrenergic receptor (Rattus norvegicus), sequence (P18090 whole entry, looked up): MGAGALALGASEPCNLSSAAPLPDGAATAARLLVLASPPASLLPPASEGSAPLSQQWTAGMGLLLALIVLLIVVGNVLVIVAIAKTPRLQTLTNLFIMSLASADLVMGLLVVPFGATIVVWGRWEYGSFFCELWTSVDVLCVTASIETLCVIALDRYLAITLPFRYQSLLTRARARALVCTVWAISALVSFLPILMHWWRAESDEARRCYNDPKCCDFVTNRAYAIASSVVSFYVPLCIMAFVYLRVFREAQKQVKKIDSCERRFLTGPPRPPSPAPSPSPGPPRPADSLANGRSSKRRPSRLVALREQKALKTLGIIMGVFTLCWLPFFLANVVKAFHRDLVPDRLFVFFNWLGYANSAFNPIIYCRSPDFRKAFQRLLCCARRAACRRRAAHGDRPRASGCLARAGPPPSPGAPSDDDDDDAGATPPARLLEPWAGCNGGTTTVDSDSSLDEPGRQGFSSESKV

CC(=O)Nc1ccccc1OCC(O)CNCCc1ccc(O)cc1 (centres undefined)
Ratio [1]: 7.6 | Kapp [2]: 2.1 µM | Kapp [3]: 16 µM

CC(=O)Nc1ccc(OCC(O)CNC(C)C)cc1 (racemic)
Ratio [1]: 17 | Kapp [2]: 18 µM | Kapp [3]: 313 µM

CC(C)NCC(O)COc1ccccc1 (centres undefined)
Ratio [1]: 1.5 | Kapp [2]: 0.24 µM | Kapp [3]: 0.37 µM

CC(C)(C)NCC(O)COc1cccc2c1CCCC2=O (centres undefined)
Ratio [1]: 1.1 | Kapp [2]: 0.015 µM | Kapp [3]: 0.017 µM

CC(C)NCC(O)COc1cccc2[nH]ccc12 (racemic)
Kapp [2]: 0.014 µM

O=C1CCCc2c(OCC(O)CNCCc3ccc(O)cc3)cccc21 (centres undefined)
Ratio [1]: 1.5 | Kapp [2]: 0.37 µM | Kapp [3]: 0.56 µM

Oc1ccc(CCNCC(O)COc2ccccc2)cc1 (centres undefined)
Ratio [1]: 0.3 | Kapp [2]: 0.7 µM | Kapp [3]: 0.24 µM

CCCCCC(=O)Nc1ccc(OCC(O)CNCCc2ccc(OC)c(OC)c2)c(Cl)c1 (centres undefined)
Ratio [1]: 53 | Kapp [2]: 0.32 µM | Kapp [3]: 17 µM

COc1ccc(CCNCC(O)COc2ccc(NC(C)=O)cc2)cc1OC (centres undefined)
Ratio [1]: 32 | Kapp [2]: 7 µM | Kapp [3]: 224 µM

CCCCCC(=O)Nc1ccc(OCC(O)CNC(C)C)cc1 (centres undefined)
Ratio [1]: 16 | Kapp [2]: 2.2 µM | Kapp [3]: 34 µM

CC(=O)Nc1ccc(OCC(O)CNCCc2ccc(O)cc2)cc1 (centres undefined)
Ratio [1]: 4.9 | Kapp [2]: 18 µM | Kapp [3]: 88 µM

C=CCc1ccccc1OCC(O)CNCCc1ccc(O)cc1 (centres undefined)
Ratio [1]: 1.3 | Kapp [2]: 0.2 µM | Kapp [3]: 0.27 µM

CCCCCC(=O)Nc1ccc(OCC(O)CNCCc2ccc(OC)c(OC)c2)cc1 (centres undefined)
Ratio [1]: 77 | Kapp [2]: 0.35 µM | Kapp [3]: 27 µM

C=CCc1ccccc1OCC(O)CNC(C)C (racemic)
Ratio [1]: 2.6 | Kapp [2]: 0.0077 µM | Kapp [3]: 0.02 µM

CCCCCC(=O)Nc1ccc(OCC(O)CNCCc2ccc(O)cc2)cc1 (centres undefined)
Ratio [1]: 10 | Kapp [2]: 3.9 µM | Kapp [3]: 39 µM

COc1ccc(CCNCC(O)COc2ccccc2)cc1OC (centres undefined)
Ratio [1]: 4.7 | Kapp [2]: 0.38 µM | Kapp [3]: 1.8 µM

CCCCCC(=O)Nc1ccc(OCC(O)CNCCc2ccc(O)cc2)c(Cl)c1 (centres undefined)
Ratio [1]: 5 | Kapp [2]: 2.7 µM | Kapp [3]: 14 µM
